System: burning sensation in the mouth produced by use of LISTERINE mouthwash
Experiment: Reduction of perceived burning sensation after rinsing with LISTERINE mouthwash with or without sophorolipid (six subjects)
Format: in vivo, human
Settings: five of six subjects; treated mouthwash (sophorolipid added) vs control mouthwash with no sophorolipid; rinse held in mouth 10-60 seconds before spitting; self-reported
Experimental: FIG. 1 is a graph that illustrates that a sophorolipid, having an oleic acid fatty acid tail, when added to mouthwash blocks or inhibits the burning sensation taste produced by use of LISTERINE® mouthwash. As discussed in Example 1 below, six subjects were instructed to rinse their mouths with either control (mouthwash with no sophorolipid) or the treated mouthwash (with 10 μM to 100 μM of the sophorolipid). Subjects reported the results as perceived burning sensation. Five of six subjects reported reductions of at least 50% in perceived burn produced by use of the treated mouthwash vs. use of the control.
Six subjects were involved in the study.
A final concentration of […] of the above noted sophorolipid was added to the mouthwash. The mouthwash with no sophorolipid added was the control. The subjects were told to rinse their mouths with either control or the treated mouthwash and hold it in their mouths for 10-60 seconds before spitting. Subjects were told to report the results as perceived burning sensation.
As reported in the graph of FIG. 1, five of six subjects reported reductions of at least 50% in perceived burn produced by use of the […].

## sophorolipid
  reduction in perceived burn: at least 50%

— US20200397686A1, “Methods of Reducing Burning or Stinging Sensation Attributed to Certain Compositions” (Monell Chemical Senses Center, priority 2018, published 2020)
